From US6858633B1, “Substituted 2-arylbenzazole compounds and their use as antitumour agents” (Cancer Research Technology Limited, priority 1999, dated 2005)

Assays:
[1] = tested on: certain human breast cancer cell lines; conditions: WO 95/06469; cited from earlier work
[2] = rat, in vivo, iv, 25 mg/kg
MCF-7 cells = assay: Conversion of prodrug to parent in culture of MCF-7 cells; format: cell-based
MDA468 = assay: In vitro cytotoxicity, 3-day MTT assay, MDA468; format: cell-based; conditions: n=8
Method: (§1) In carrying out the following cytoloxicity assays, the method used corresponds substantially to the following example: • Cells were maintained in a continuous logarithmic culture in RMPI 1640 with L-glutamine medium, supplemented with 10% fetal calf serum, penicillin (100 IU/ml) and streptomycin (100 μg/ml). The cells were mildly trypsinized for passage and for use in assays. • On day one, 180 μl of trypsinized tumour cells (5×10^3 ml^−1) were placed in the wells of 96-well, flat-bottom microtiter plates. Columns 1 and 12 were filled with 300 μl medium to protect from evaporation. The plates were incubated for 24 hours at 37° C. and 5% CO2 in air to allow the cells to adhere and resume exponential growth prior to the addition of drugs. The compounds being tested were dissolved in DMSO and stored as 10 mM stock solutions at 4° C., protected from light. […] 20 μl of drug dilution was added to the other wells with the lowest concentration in column 3 and the highest concentration in column 11. The plates were incubated for 72 hours at 37° C. and 5% CO2 in air. Each compound was tested in triplicate. At the time of drug addition, a plate of untreated cells was read to provide an initial optical density value for use in the calculation of the IC50. • On day five the plates were read. 50 μl MTT (1 mg/ml^−1) was added per well and the plates incubated for a further 4 hours. The MTT is metaboliscd to form a blue formazan product. The MTT solution was aspirattd and 125 μl DMSO:glycine buffer (4:1) was added. The plates were placed on a plate shaker until the fornazan crystals had dissolved and absorbance was ready at 550 nm on a plate reader. • For each compound tested, a dose response curve was obtained and the IC50 statue (drug concentration at 50% inhibition of cell growth) was calculated.
(§2) (n=8) for a range of compounds in relation to MCF-7 and MDA 468 cell lines.

[3] = Stability in plasma in vitro; format: in vitro ADME, rat; conditions: rat, plasma
MCF-7 = assay: In vitro cytotoxicity, 3-day MTT assay, MCF-7; format: cell-based, human; conditions: 3-day MTT assay, n=8
Method: as §1, §2

sensitive cell lines = assay: Biphasic dose-response relationship (second growth phase) in sensitive cell lines; format: cell-based
Excerpt: One feature of the prior art compounds is that they show a biphasic dose-response relationship specifically in sensitive cell lines: cell kill occurs at low nanomolar concentrations of the compounds, followed by a potentially undesirable proliferative response at low micromolar concentrations (termed the “second growth phase”).

[4] = tested on: ER negative MT-1 human breast tumor xenografts
[5] = tested on: ER positive MCF-7 human breast tumor xenografts
[6] = Plasma concentrations after administration to mice; format: in vivo; conditions: mouse, 70 μmol/kg, read-out: Geometric Mean Plasma Concentration
COLO205 xenografts = assay: In vivo COLO205 xenograft study (FIG. 2)
[7] = Blood parameters and liver transaminases in xenograft studies; design: species or system nude mice; conditions: mouse, in vivo
[8] = tested on: cell lines that relate to a range of various mammalian cancers other than human breast cancer; conditions: WO 96/26932; cited from earlier work

Question: Which “specific inhibitory activity in human breast cancer cell lines” value [1] does the source give for `Nc1ccc(-c2nc3ccccc3s2)cc1` [CJM 126, 2-(4′-aminophenyl)benzothiazole] here?
Answer: remarkably high specific inhibitory activity

Question: Which “removal from plasma and reconversion to parent compound in vivo” value [2] does the source give for `Cc1cc(-c2nc3cc(F)ccc3s2)ccc1NC(=O)C(N)CCCCN.Cl.Cl` (centres unmarked) [Compound Iad, 5-Fluoro-2-(4′-amino-3′-methylphenyl)benzothiazole Lysyl Amide Dihydrochloride Salt] here?
Answer: readily removed from such plasma and reconverted to their parent compound in vivo

Question: And the “concentration of parent compound 5F203 after addition of prodrug to MCF-7 culture” value (MCF-7 cells)?
Answer: progressive increase in concentration of the parent compound 5F203

Question: What about the IC50 (MDA468) of the same molecule?
Answer: 158 nM

Question: What about the “stability in plasma in vitro” value [3] of the same molecule?
Answer: stable

Question: What about the IC50 (MCF-7) of the same molecule?
Answer: 40 nM

Question: Which “biphasic dose-response (second growth phase)” value (sensitive cell lines) does the source give for `Cc1cc(-c2nc3cc(F)ccc3s2)ccc1N` [Compound Ik, 5-Fluoro-2-(4′-amino-3′-methylphenyl)benzothiazole] here?
Answer: the biphasic response is eliminated

Question: And the IC50 (MDA468; 72 h)?
Answer: < 0.1 nM

Question: What about the “toxicity in MT-1 xenograft study” value ([4]; 25 mg/kg, parent compounds) of the same molecule?
Answer: toxic

Question: What about the “tumor growth inhibition in MT-1 xenografts” value ([4]; dose dependence) of the same molecule?
Answer: dose-dependent tumor growth inhibition

Question: What about the “weight loss in MT-1 xenograft study” value ([4]; dose dependence) of the same molecule?
Answer: weight loss

Question: And the “toxicity in MCF-7 xenograft study” value ([5]; 12.5 mg/kg, i.p.)?
Answer: toxic

Question: What about the “tumour growth inhibition, MCF7 xenografts (FIG. 1)” value [5] of the same molecule?
Answer: Tumour growth inhibition observed

Question: And the “growth inhibition of MCF-7 xenografts” value ([5]; given i.p.)?
Answer: Significant growth inhibition

Question: What about the concentration at 3.5 min ([6]; mean sample time 3.5 min) of the same molecule?
Answer: 1180 nM

Question: And the concentration at 6.5 min ([6]; mean sample time 6.5 min)?
Answer: 1530 nM

Question: What about the concentration at 9.5 min ([6]; mean sample time 9.5 min) of the same molecule?
Answer: 1840 nM

Question: And the concentration at 12.5 min ([6]; mean sample time 12.5 min)?
Answer: 2270 nM

Question: What about the concentration at 15.5 min ([6]; mean sample time 15.5 min) of the same molecule?
Answer: 3270 nM

Question: What about the concentration at 20.8 min ([6]; mean sample time 20.8 min) of the same molecule?
Answer: 2680 nM

Question: And the concentration at 30.5 min ([6]; mean sample time 30.5 min)?
Answer: 3770 nM

Question: What about the concentration at 45.4 min ([6]; mean sample time 45.4 min) of the same molecule?
Answer: 3410 nM

Question: What about the concentration at 60.5 min ([6]; mean sample time 60.5 min) of the same molecule?
Answer: 4110 nM

Question: What about the concentration at 90.6 min ([6]; mean sample time 90.6 min) of the same molecule?
Answer: 3520 nM

Question: And the concentration at 120.5 min ([6]; mean sample time 120.5 min)?
Answer: 2630 nM

Question: And the concentration at 240 min ([6]; mean sample time 240.0 min)?
Answer: 1000 nM

Question: What about the concentration at 360 min ([6]; mean sample time 360.0 min) of the same molecule?
Answer: 590 nM

Question: And the IC50 (MCF-7; Homo sapiens, MCF7, 72 h)?
Answer: < 0.1 nM

Question: And the “tumour growth inhibition, COLO205 xenografts (FIG. 2)” value (COLO205 xenografts)?
Answer: tumour growth inhibition observed

Question: What about the “blood parameters (white blood cell and platelet counts) and level of liver transaminases” value [7] of the same molecule?
Answer: not adversely affected

Question: Which results are given for `Cc1cc(-c2nc3ccccc3s2)ccc1N` [DF203, 2-(4′-amino-3′-methylphenyl)benzothiazole, reference compound]?
Answer: tumour growth inhibition, MCF7 xenografts (FIG. 1) [5]: Tumour growth inhibition observed; anti-proliferative activity in cell lines of cancers other than human breast cancer [8]: exhibit anti-proliferative activity selectively
